Key:
Experiment in all cases: relative viability (nuclei count vs DMSO), 5 days (fraction); higher = more cells survive
Vorinostat + OSI-027 = compound: O=C(CCCCCCC(=O)Nc1ccccc1)NO [Vorinostat] + COc1cccc2cc(-c3nc([C@H]4CC[C@H](C(=O)O)CC4)n4ncnc(N)c34)[nH]c12 [OSI-027] (partner 0.5 µM)
Procedure, shortened: (§1)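 Five library-drug doses in √10 steps were combined with a fixed anchor-drug dose, or a single drug was given alone, by pin tool to lung cancer cell lines in 1536-well plates the day after seeding. Nuclei were stained and counted after 5 days. Relative viability is the nuclei count in treated wells over that in vehicle wells, taken as the median of duplicate plates.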

Vorinostat + Navitoclax = compound: O=C(CCCCCCC(=O)Nc1ccccc1)NO [Vorinostat] + CC1(C)CCC(c2ccc(Cl)cc2)=C(CN2CCN(c3ccc(C(=O)NS(=O)(=O)c4ccc(N[C@H](CCN5CCOCC5)CSc5ccccc5)c(S(=O)(=O)C(F)(F)F)c4)cc3)CC2)C1 [Navitoclax] (partner 0.5 µM)
Procedure, shortened: as §1

Vorinostat + Foretinib = compound: O=C(CCCCCCC(=O)Nc1ccccc1)NO [Vorinostat] + COc1cc2c(Oc3ccc(NC(=O)C4(C(=O)Nc5ccc(F)cc5)CC4)cc3F)ccnc2cc1OCCCN1CCOCC1 [Foretinib] (partner 0.25 µM)
Procedure, shortened: as §1

Vorinostat + Olaparib = compound: O=C(CCCCCCC(=O)Nc1ccccc1)NO [Vorinostat] + O=C(c1cc(Cc2n[nH]c(=O)c3ccccc23)ccc1F)N1CCN(C(=O)C2CC2)CC1 [Olaparib] (partner 8 µM)
Procedure, shortened: as §1

Vorinostat + Alpelisib = compound: O=C(CCCCCCC(=O)Nc1ccccc1)NO [Vorinostat] + Cc1nc(NC(=O)N2CCC[C@H]2C(N)=O)sc1-c1ccnc(C(C)(C)C(F)(F)F)c1 [Alpelisib] (partner 2 µM)
Procedure, shortened: as §1

| Cell Line | relative viability (Vorinostat + OSI-027; first compound 0.253 µM) | relative viability (Vorinostat + OSI-027; first compound 0.8 µM) | relative viability (Vorinostat + OSI-027; first compound 2.53 µM) | relative viability (Vorinostat + OSI-027; first compound 8 µM) | relative viability (Vorinostat + Navitoclax; first compound 0.253 µM) | relative viability (Vorinostat + Navitoclax; first compound 0.8 µM) | relative viability (Vorinostat + Navitoclax; first compound 2.53 µM) | relative viability (Vorinostat + Navitoclax; first compound 8 µM) | relative viability (Vorinostat + Foretinib; first compound 0.253 µM) | relative viability (Vorinostat + Foretinib; first compound 0.8 µM) | relative viability (Vorinostat + Foretinib; first compound 2.53 µM) | relative viability (Vorinostat + Foretinib; first compound 8 µM) | relative viability (Vorinostat + Olaparib; first compound 0.253 µM) | relative viability (Vorinostat + Olaparib; first compound 0.8 µM) | relative viability (Vorinostat + Olaparib; first compound 2.53 µM) | relative viability (Vorinostat + Olaparib; first compound 8 µM) | relative viability (Vorinostat + Alpelisib; first compound 0.253 µM) | relative viability (Vorinostat + Alpelisib; first compound 0.8 µM) | relative viability (Vorinostat + Alpelisib; first compound 2.53 µM) | relative viability (Vorinostat + Alpelisib; first compound 8 µM) |
| --- | --- | --- | --- | --- | --- | --- | --- | --- | --- | --- | --- | --- | --- | --- | --- | --- | --- | --- | --- | --- |
| LC-2-ad | 0.81 | 0.508 | 0.206 | 0.159 | 0.539 | 0.277 | 0.102 | 0.113 | 0.984 | 0.681 | 0.268 | 0.145 | 0.706 | 0.541 | 0.267 | 0.19 | 0.816 | 0.644 | 0.0538 | 0.0781 |
| HCC-366 | 0.979 | 0.432 | 0.146 | 0.0279 | 1.03 | 0.9 | 0.135 | 0.0208 | 1.03 | 0.333 | 0.0524 | 0.0624 | 0.249 | 0.116 | 0.0308 | 0.0193 | 0.456 | 0.36 | 0.0363 | 0.0122 |
| NCI-H2023 | 0.473 | 0.359 | 0.134 | 0.0617 | 1.08 | 0.91 | 0.449 | 0.0939 | 1.13 | 0.82 | 0.31 | 0.0629 | 0.403 | 0.296 | 0.113 | 0.0691 | 0.623 | 0.509 | 0.292 | 0.0757 |
| PC-3 [JPC-3] | 0.68 | 0.727 | 0.378 | 0.175 | 0.655 | 0.676 | 0.398 | 0.247 | 1.02 | 1.03 | 0.316 | 0.239 | 1.13 | 1.05 | 0.379 | 0.326 | 1.01 | 0.979 | 0.572 | 0.259 |
| NCI-H2342 | 0.607 | 0.649 | 0.524 | 0.386 |  |  |  |  | 0.975 | 1.07 | 0.587 | 0.385 | 0.467 | 0.496 | 0.308 | 0.269 |  |  |  |  |
| LOU-NH91 | 0.828 | 0.62 | 0.516 | 0.303 | 0.791 | 0.568 | 0.313 | 0.233 | 1.08 | 0.917 | 0.758 | 0.347 | 0.959 | 0.832 | 0.587 | 0.404 | 0.792 | 0.676 | 0.452 | 0.322 |
| LCLC-97TM1 | 0.444 | 0.582 | 0.249 | 0.112 |  | 0.298 | 0.289 | 0.0998 | 1.06 | 0.957 | 0.394 | 0.153 | 0.455 | 0.429 | 0.19 | 0.0482 |  | 0.26 | 0.158 | 0.114 |
| NCI-H2405 | 0.695 | 0.778 | 0.463 | 0.103 | 1.13 | 0.771 | 0.0779 | 0.0557 | 1.16 | 1.15 | 0.505 | 0.108 | 1.02 | 0.888 | 0.313 | 0.0962 | 1.01 | 0.835 | 0.16 | 0.0486 |
| A549 |  |  |  |  | 1.31 | 1.08 | 0.352 | 0.0351 | 0.929 | 0.478 | 0.0393 | 0.0151 | 0.278 | 0.177 | 0.0609 | 0.0236 | 0.861 | 0.802 | 0.104 | 0.0282 |

From the supplement of paper PMC10307832
